This is an account of results in ChEMBL document CHEMBL3526147, “Tissue distribution and characterization of drug-related material in rats and dogs after repeated oral administration of casopitant” (Drug Metab Dispos, 2011).

Data set [1] is described as follows: Drug level in kidney of beagle dog treated with [14C]casopitant mesylate at 40 mg/kg/day, po administered as repeat dose measured after 24 hrs on day 14 by HPLC-MS/MS method relative to [14C]casopitant mesylate radioactivity. It counts as ADME, organism-based, Canis lupus familiaris. On the set-up: dosed compound name [14C]Casopitant, route oral. The note with it: in vivo.

Data set [2] in a line: Drug level in myocardium of beagle dog treated with [14C]casopitant mesylate at 40 mg/kg/day, po administered as repeat dose measured after 13 weeks by HPLC-MS/MS method. It counts as ADME, organism-based, Canis lupus familiaris. On the set-up: dosed compound name [14C]Casopitant, route oral. The note with it: in vivo, 2184 h.
Data set [3] can be described thus: Drug level in myocardium of beagle dog treated with [14C]casopitant mesylate at 40 mg/kg/day, po administered as repeat dose measured after 24 hrs on day 14 by HPLC-MS/MS method relative to [14C]casopitant mesylate radioactivity. Also noted: dosed compound name [14C]Casopitant, route oral. It counts as ADME, organism-based, Canis lupus familiaris. The conditions noted are these: in vivo.

The test system of data set [4] is Canis familiaris. The data set is described as follows: Cmax in beagle dog treated with [14C]casopitant mesylate at 40 mg/kg/day, po administered as repeat dose measured after 26 weeks by HPLC-MS/MS method. The note with it: in vivo, 4368 h. On the set-up: dose 40 mg/kg/day, dosed compound name [14C]Casopitant, route oral. It counts as ADME, organism-based, Canis lupus familiaris.

Data set [5] has as its system Plasma. The data set is described as follows: Drug level in plasma of Sprague-Dawley rat treated with [14C]casopitant mesylate at 60 mg/kg/day, po administered as repeat dose measured after 24 hrs on day 20 by HPLC-MS/MS method relative to [14C]casopitant mesylate radioactivity. It counts as ADME, organism-based. Also noted: dosed compound name [14C]Casopitant, route oral. The note with it: in vivo.

Data set [6] deals with Canis familiaris. In words: AUC (0 to t) in beagle dog treated with [14C]casopitant mesylate at 40 mg/kg/day, po administered as repeat dose measured after 26 weeks by HPLC-MS/MS method. It counts as ADME, organism-based, Canis lupus familiaris, Plasma. Also noted: dosed compound name [14C]Casopitant, route oral. The conditions noted are these: in vivo, 4368 h.
A short description of data set [7]: Drug level in myocardium of beagle dog treated with [14C]casopitant mesylate at 40 mg/kg/day, po administered as repeat dose measured after 22 weeks post dosing withdrawal by HPLC-MS/MS method. The data set is classed as ADME, organism-based, Canis lupus familiaris. The conditions noted are these: in vivo, 3696 h. On the set-up: dosed compound name [14C]Casopitant, route oral.

The nature of data set [8]: Drug level in lung of beagle dog treated with [14C]casopitant mesylate at 40 mg/kg/day, po administered as repeat dose measured after 24 hrs on day 14 by HPLC-MS/MS method relative to [14C]casopitant mesylate radioactivity. On the set-up: dosed compound name [14C]Casopitant, route oral. It counts as ADME, organism-based, Canis lupus familiaris. The note with it: in vivo.

Data set [9] in a line: Drug level in myocardium of beagle dog treated with [14C]casopitant mesylate at 40 mg/kg/day, po administered as repeat dose measured after 26 weeks by HPLC-MS/MS method. The note with it: in vivo, 4368 h. It counts as ADME, organism-based, Canis lupus familiaris. Also noted: dosed compound name [14C]Casopitant, route oral.
Data set [10] in a line: Drug level in skeletal muscle of beagle dog treated with [14C]casopitant mesylate at 40 mg/kg/day, po administered as repeat dose measured after 24 hrs on day 14 by HPLC-MS/MS method relative to [14C]casopitant mesylate radioactivity. Also noted: dosed compound name [14C]Casopitant, route oral. The conditions noted are these: in vivo. It counts as ADME, organism-based, Canis lupus familiaris, Muscle tissue.

Data set [11] relates to Canis familiaris. In words: Tmax in beagle dog treated with [14C]casopitant mesylate at 40 mg/kg/day, po administered as repeat dose measured after 26 weeks by HPLC-MS/MS method. It counts as ADME, organism-based, Canis lupus familiaris. On the set-up: dosed compound name [14C]Casopitant, route oral. The note with it: in vivo, 4368 h.
Data set [12] in a line: Drug level in myocardium of beagle dog treated with [14C]casopitant mesylate at 40 mg/kg/day, po administered as repeat dose measured after 6 weeks by HPLC-MS/MS method. It counts as ADME, organism-based, Canis lupus familiaris. Also noted: dosed compound name [14C]Casopitant, route oral. The conditions noted are these: in vivo, 1008 h.
Data set [13] relates to Plasma. The data set is described as follows: Drug level in plasma of beagle dog treated with [14C]casopitant mesylate at 40 mg/kg/day, po administered as repeat dose measured after 24 hrs on day 14 by HPLC-MS/MS method relative to [14C]casopitant mesylate radioactivity. The note with it: in vivo. It counts as ADME, organism-based, Canis lupus familiaris. On the set-up: dosed compound name [14C]Casopitant, route oral.

A short description of data set [14]: Drug level in myocardium of beagle dog treated with [14C]casopitant mesylate at 40 mg/kg/day, po administered as repeat dose measured after 20 weeks by HPLC-MS/MS method. It counts as ADME, organism-based, Canis lupus familiaris. On the set-up: dosed compound name [14C]Casopitant, route oral. The conditions noted are these: in vivo, 3360 h.
Data set [15] relates to Plasma. In words: Drug level in beagle dog plasma treated with [14C]casopitant mesylate at 40 mg/kg/day, po administered as repeat dose measured during 24 hrs dosing interval on week 26 by HPLC-MS/MS method. The conditions noted are these: in vivo. On the set-up: dosed compound name [14C]Casopitant, route oral. It counts as ADME, organism-based, Canis lupus familiaris.

Regarding `CC(=O)N1CCN([C@H]2CCN(C(=O)N(C)[C@H](C)c3cc(C(F)(F)F)cc(C(F)(F)F)c3)[C@@H](c3ccc(F)cc3C)C2)CC1O` (some centres not stated), the Compound recovery in data set [1] came out at 2.9%; in data set [2], 4516 ng/g; in [3] it was 2.1%; in the data set on Plasma [5], 0.3%; in data set [8], 1.9%; in data set [9], 3686 ng/g. Further, the Compound recovery is reported as 4.2% in data set [10], 2041 ng/g in data set [12], 4.8% in the data set with Plasma [13] and 6554 ng/g in [14]. In the data set on Canis familiaris [4], this molecule registered a Cmax of 4357 ng/mL. The molecule further came in with an AUCt in the data set with Canis familiaris [6] of 61603 ng·h/mL. The “Drug concentration in myocardium” value in data set [7] was less than 50 ng/g. Besides, the Tmax in the data set with Canis familiaris [11] turned out to be 4 h.

For `Cc1cc(F)ccc1[C@H]1C[C@@H](NCCN)CCN1C(=O)N(C)[C@H](C)c1cc(C(F)(F)F)cc(C(F)(F)F)c1`, the Compound recovery in data set [1] is recorded as 4.8%; in data set [2], 62780 ng/g; in data set [3] it was 3.7%; in the data set with Plasma [5], “Metabolite not detected”; in [8], 2.3%; in [9], 114014 ng/g. The Compound recovery in data set [10] was 2.4%; in data set [12], 39180 ng/g; in the data set on Plasma [13] (BLD = below limit of detection), “BLD”; in [14], 85193 ng/g. The Cmax with Canis familiaris [4] amounted to 65.5 ng/mL. This molecule also registered an AUCt in the data set on Canis familiaris [6] of 1442 ng·h/mL. Also, the “Drug concentration in myocardium” value in data set [7] amounted to 31732 ng/g. Also, the Tmax in the data set with Canis familiaris [11] is 24 h.

Consider `C[C@@H](NC(N)=O)c1cc(C(F)(F)F)cc(C(F)(F)F)c1`, for which the Compound recovery entry in data set [1] was “Metabolite not detected”; in data set [3] it was “Metabolite not detected”; with Plasma [5], 4.6%; in [8] it was “Metabolite not detected”; in [10], “Metabolite not detected”; with Plasma [13], “Metabolite not detected”.

With `Cc1cc(F)ccc1[C@H]1C[C@@H](N2CCNCC2)CCN1C(=O)N(C)[C@H](C)c1cc(C(F)(F)F)cc(C(F)(F)F)c1`, the Compound recovery in [1] was 7%; in [2], 7867 ng/g; in data set [3] it was 3.4%; in the data set on Plasma [5] it was 1.5%; in [8] it was 11.9%; with Plasma [15], “metabolite_detected”. Moreover, the Compound recovery in [9] is 11346 ng/g; in data set [10], 7.6%; in data set [12], 3623 ng/g; in the data set with Plasma [13], 0.8%; in [14], 14215 ng/g. Besides, in the data set on Canis familiaris [4], the Cmax was determined as 82 ng/mL. For the same molecule, in the data set on Canis familiaris [6], the AUCt amounted to 1803 ng·h/mL. The “Drug concentration in myocardium” value in data set [7] is on record as less than 50 ng/g. For the same molecule, the Tmax with Canis familiaris [11] is 8 h.

As to `CC(=O)NCCN[C@H]1CCN(C(=O)N(C)[C@H](C)c2cc(C(F)(F)F)cc(C(F)(F)F)c2)[C@@H](c2ccc(F)cc2C)C1`, the Compound recovery in data set [2] is on record as 5386 ng/g; in the data set on Plasma [15], “metabolite_detected”; in data set [9], 6644 ng/g; in data set [12], 2379 ng/g; in data set [14] it was 9399 ng/g. The Cmax with Canis familiaris [4] is 189 ng/mL. This molecule also returned an AUCt with Canis familiaris [6] of 3040 ng·h/mL. In addition, the “Drug concentration in myocardium” value in [7] is listed as less than 50 ng/g. Also, in the data set on Canis familiaris [11], the Tmax came to 1 h.

With `Cc1cc(F)ccc1[C@H]1C[C@@H](N)CCN1C(=O)N(C)[C@H](C)c1cc(C(F)(F)F)cc(C(F)(F)F)c1`, the Compound recovery in data set [2] is given as 39073 ng/g; in the data set on Plasma [15], “metabolite_detected”; in data set [9], 58640 ng/g; in [12], 29401 ng/g; in data set [14], 52699 ng/g. In the data set with Canis familiaris [4], this molecule registered a Cmax of 1044 ng/mL. For the same molecule, in the data set on Canis familiaris [6], the AUCt is 22858 ng·h/mL. The “Drug concentration in myocardium” value in data set [7] is 408 ng/g. Further, the Tmax with Canis familiaris [11] came out at 24 h.

For `Cc1cc(F)ccc1[C@H]1C[C@@H](N2CCNC(=O)C2)CCN1C(=O)N(C)[C@H](C)c1cc(C(F)(F)F)cc(C(F)(F)F)c1`, the Compound recovery in [1] was 2.2%; in data set [2], 2010 ng/g; in data set [3] it was 1.6%; in the data set with Plasma [5] it was 1.2%; in data set [8] it was 1.2%; with Plasma [15] it was “metabolite_detected”. For the same molecule, the Compound recovery in data set [9] stood at 2416 ng/g; in data set [10] it was 3.5%; in [12] it was 1517 ng/g; in the data set with Plasma [13] it was 4.1%; in [14], 3286 ng/g. In the data set on Canis familiaris [4], the Cmax came out at 1013 ng/mL. For the same molecule, in the data set with Canis familiaris [6], the AUCt was 21248 ng·h/mL. In addition, the “Drug concentration in myocardium” value in [7] was less than 50 ng/g. Also, the Tmax in the data set on Canis familiaris [11] was 8 h.

In the case of `CC(=O)N1CCN([C@H]2CCN(C(=O)N(C)[C@H](C)c3cc(C(F)(F)F)cc(C(F)(F)F)c3)[C@@H](c3ccc(F)cc3C)C2)CC1=O`, the Compound recovery in data set [1] is listed as 1.1%; in [3], 0.5%; in the data set on Plasma [5], 0.2%; in data set [8] it was 0.6%; in [10] it was 1.3%; in the data set with Plasma [13], 0.9%.

Consider `CC(=O)N1CCN([C@H]2CCN(C(=O)N(C)[C@H](C)c3cc(C(F)(F)F)cc(C(F)(F)F)c3)[C@@H](c3ccc(F)cc3C)C2)CC1.CS(=O)(=O)O` [CASOPITANT MESYLATE], for which the Compound recovery in data set [1] stood at 7%; in [2], 1991 ng/g; in [3] it was 3.7%; in the data set on Plasma [5] it was 1.5%; in [8], 11.9%; in data set [9], 889 ng/g. For the same molecule, the Compound recovery in [10] is given as 2.4%; in data set [12] it was 467 ng/g; in the data set on Plasma [13] it was 1.9%; in [14], 2098 ng/g. Besides, in the data set on Canis familiaris [4], the Cmax came to 7167 ng/mL. The AUCt in the data set with Canis familiaris [6] was 53599 ng·h/mL. Moreover, the “Drug concentration in myocardium” value in [7] is less than 50 ng/g. For the same molecule, the Tmax with Canis familiaris [11] was 1 h.
